Here are results for 35 molecules from patent US10752624B2, “Kinase inhibitors” (Origenis GmbH, priority 2012, dated 2020).

The structures appear in SMILES notation.

A word on the IC50: it is the concentration at which inhibition is half-maximal.

LRRK2, sequence (Q5S007 970-2527 limits assumed): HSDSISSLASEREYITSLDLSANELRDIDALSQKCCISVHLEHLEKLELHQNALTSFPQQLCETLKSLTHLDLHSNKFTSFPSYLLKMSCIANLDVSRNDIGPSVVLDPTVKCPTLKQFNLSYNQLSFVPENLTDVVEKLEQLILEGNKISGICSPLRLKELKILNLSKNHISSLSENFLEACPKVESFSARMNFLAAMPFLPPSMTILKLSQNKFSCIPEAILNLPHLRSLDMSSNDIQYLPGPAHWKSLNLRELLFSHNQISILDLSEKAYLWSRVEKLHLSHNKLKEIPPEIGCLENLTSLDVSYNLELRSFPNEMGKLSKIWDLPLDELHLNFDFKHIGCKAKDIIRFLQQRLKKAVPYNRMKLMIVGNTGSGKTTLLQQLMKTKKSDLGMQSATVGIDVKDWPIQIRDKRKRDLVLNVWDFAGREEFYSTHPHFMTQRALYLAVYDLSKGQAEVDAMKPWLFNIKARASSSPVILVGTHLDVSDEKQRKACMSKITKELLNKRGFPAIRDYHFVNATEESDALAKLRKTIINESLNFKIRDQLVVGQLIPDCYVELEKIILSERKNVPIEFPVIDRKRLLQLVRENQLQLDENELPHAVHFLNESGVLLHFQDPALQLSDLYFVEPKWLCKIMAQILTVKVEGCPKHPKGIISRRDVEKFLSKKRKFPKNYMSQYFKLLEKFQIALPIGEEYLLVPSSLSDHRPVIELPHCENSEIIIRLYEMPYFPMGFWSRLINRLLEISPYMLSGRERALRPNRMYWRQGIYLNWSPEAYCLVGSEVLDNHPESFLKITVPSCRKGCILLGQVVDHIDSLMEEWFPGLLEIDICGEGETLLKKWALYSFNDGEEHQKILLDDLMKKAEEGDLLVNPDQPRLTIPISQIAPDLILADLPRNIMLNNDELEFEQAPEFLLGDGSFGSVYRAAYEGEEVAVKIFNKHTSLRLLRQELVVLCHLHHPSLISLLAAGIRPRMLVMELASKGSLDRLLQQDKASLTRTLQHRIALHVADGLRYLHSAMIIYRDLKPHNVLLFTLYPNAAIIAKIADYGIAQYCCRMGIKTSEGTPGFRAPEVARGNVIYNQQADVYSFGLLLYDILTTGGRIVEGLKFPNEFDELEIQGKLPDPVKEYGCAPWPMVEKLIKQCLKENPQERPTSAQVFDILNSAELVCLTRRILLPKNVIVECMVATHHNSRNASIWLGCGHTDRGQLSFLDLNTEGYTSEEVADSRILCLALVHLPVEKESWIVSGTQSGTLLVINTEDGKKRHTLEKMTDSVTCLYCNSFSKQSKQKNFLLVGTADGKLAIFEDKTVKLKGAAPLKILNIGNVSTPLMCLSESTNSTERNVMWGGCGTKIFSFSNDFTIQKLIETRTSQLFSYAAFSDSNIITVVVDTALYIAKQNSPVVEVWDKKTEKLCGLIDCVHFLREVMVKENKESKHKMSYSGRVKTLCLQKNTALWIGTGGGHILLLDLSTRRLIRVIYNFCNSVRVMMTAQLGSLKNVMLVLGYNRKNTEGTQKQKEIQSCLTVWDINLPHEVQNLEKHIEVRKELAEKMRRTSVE

For this assay, the target named is LRRK2 (Homo sapiens, UniProt Q5S007). In words: LRRK2-LRRK2 G2019S-Assay (LanthaScreen Eu Kinase Binding Assay). The following applies: 5 nM LRRK2, 10 nM tracer 236, 2 nM EU-Anti-GST antibody, 1 h at RT; read-out: LRRK2 Activities: IC50. The protocol:
In the assay LanthaScreen™ Eu Kinase Binding Assay by Invitrogen Corporation (Carlsbad) the effect of invention of a compound on the phosphorylation is determined by measurement of fluorescence intensity emission ratio based on the binding and displacement of a proprietary, Alexa Fluor® 647-labeled, ATP-competitive kinase inhibitor scaffold (kinase tracer) to the kinase of interest. Binding of the tracer to the kinase is detected using a europium-labeled anti-tag antibody, which binds to the kinase of interest. Simultaneous binding of both the tracer and antibody to the kinase results in a high degree of FRET (fluorescence resonance energy transfer) from the europium (Eu) donor fluorophore to the Alexa Fluor® 647 acceptor fluorophore on the kinase tracer. Binding of an inhibitor to the kinase competes for binding with the tracer, resulting in a loss of FRET. The fluorescence intensity ratio is directly proportional to the amount of peptide phosphorylation.
To the wells of an 384 well small volume plate (Greiner, Frickenhausen) are added (i) the compound under test in 5% DMSO/distilled water (5 μl), (ii) 5 μl of the kinase antibody mixture resulting in a final concentration 5 nM LRRK2 or their mutants, 2 nM EU-Anti-GST antibody in 1× kinase buffer A. The reaction was started with addition of (iii) 5 μl resulting in a final concentration of 10 nM tracer 236. The assay plate was incubated at RT for 1 h and fluorescence intensity readings were collected using a TECAN M1000 at two wavelengths of λex 340/λem 615 nm and λex 340/λem 665 nm with a delay time of 100 μs and an integration time of 200 μs after 60 minutes. The emission ratio was calculated by division of the acceptor/tracer emission ([…]) by the antibody/donor emission ([…]). The inhibitor concentration was plotted versus the emission ratio to determine the IC50 using XLFit 5.0 (IDBS, Guildford) to fit to a sigmoidal dose response curve with a variable slope.
Background: TR-FRET usually uses a lanthanide donor and a delayed reading to cut background.
`Fc1cc(Nc2nc3cccc(F)c3c3cn[nH]c23)ccc1N1CCOCC1` [Example 2, 9-fluoro-N-(3-fluoro-4-morpholinophenyl)-3H-pyrazolo[3,4-c]quinolin-4-amine]: the IC50 was in the range of 0.1 to 1 µM.

With `COc1ccc2nc(Nc3ccc(F)c(S(C)(=O)=O)c3)c3n[nH]cc3c2c1` [Example 4, N-(4-fluoro-3-(methylsulfonyl)phenyl)-8-methoxy-2H-pyrazolo[3,4-c]quinolin-4-amine], the IC50 is 0.1 to 1 µM.

Regarding `COc1ccc2nc(Nc3cccc(CN(C)C)c3)c3n[nH]cc3c2c1` [Example 5, N-(3-((dimethylamino)methyl)phenyl)-8-methoxy-2H-pyrazolo[3,4-c]quinolin-4-amine], the IC50 is 0.1 to 1 µM.

On to `COc1ccc2nc(Nc3cccc(C(=O)N4CCOCC4)c3)c3n[nH]cc3c2c1` [Example 7, (3-((8-methoxy-2H-pyrazolo[3,4-c]quinolin-4-yl)amino)phenyl)(morpholino)methanone], for which the IC50 was 0.1 to 1 µM.

In the case of `Fc1cccc2nc(Nc3ccc(N4CCOCC4)cc3)c3[nH]ncc3c12` [Example 9, 9-fluoro-N-(4-morpholinophenyl)-3H-pyrazolo[3,4-c]quinolin-4-amine], the IC50 fell in the range of 0.01 to 0.1 µM.

As for `Fc1cccc2nc(Nc3ccc(N4CCOCC4)nc3)c3[nH]ncc3c12` [Example 11, 9-fluoro-N-(6-morpholinopyridin-3-yl)-3H-pyrazolo[3,4-c]quinolin-4-amine], the IC50 lay within 0.1 to 1 µM.

As to `COc1ccc2nc(Nc3ccc4c(c3)S(=O)(=O)CC4)c3n[nH]cc3c2c1` [Example 12, 6-((8-methoxy-2H-pyrazolo[3,4-c]quinolin-4-yl)amino)-2,3-dihydrobenzo[b]thiophene 1,1-dioxide], the 50% inhibitory concentration (IC50) lay within 0.1 to 1 µM.

As to `COc1ccc2nc(Nc3ccc4c(c3)S(=O)(=O)C=C4)c3n[nH]cc3c2c1` [Example 13, 6-((8-methoxy-2H-pyrazolo[3,4-c]quinolin-4-yl)amino)benzo[b]thiophene 1,1-dioxide], the IC50 fell in the range of 0.1 to 1 µM.

With `COc1cccc2nc(Nc3ccc(C(=O)N4CCOCC4)cc3)c3[nH]ncc3c12` [Example 14, (4-((9-methoxy-3H-pyrazolo[3,4-c]quinolin-4-yl)amino)phenyl)(morpholino)methanone], the IC50 was in the range of 0.01 to 0.1 µM.

`COc1cccc2nc(Nc3ccc(CN4CCOCC4)cc3)c3[nH]ncc3c12` [Example 15, 9-methoxy-N-(4-(morpholinomethyl)phenyl)-3H-pyrazolo[3,4-c]quinolin-4-amine]: the half-inhibitory concentration (IC50) lay within 0.01 to 0.1 µM.

In the case of `COc1cc(Nc2nc3cccc(OC)c3c3cn[nH]c23)ccc1N1CCOCC1` [Example 16, 9-methoxy-N-(3-methoxy-4-morpholinophenyl)-3H-pyrazolo[3,4-c]quinolin-4-amine], the half-inhibitory concentration (IC50) was in the range of 0.01 to 0.1 µM.

For `COc1cccc2nc(Nc3ccc(N4CCOCC4)nc3)c3[nH]ncc3c12` [Example 17, 9-methoxy-N-(6-morpholinopyridin-3-yl)-3H-pyrazolo[3,4-c]quinolin-4-amine], the IC50 fell in the range of 0.01 to 0.1 µM.

As for `COc1cccc2nc(Nc3ccc4c(c3)COC4)c3[nH]ncc3c12` [Example 18, N-(1,3-dihydroisobenzofuran-5-yl)-9-methoxy-3H-pyrazolo[3,4-c]quinolin-4-amine], the half-inhibitory concentration (IC50) was 0.01 to 0.1 µM.

Consider `COc1cccc2nc(Nc3ccc4c(c3)S(=O)(=O)CC4)c3[nH]ncc3c12` [Example 19, 6-((9-methoxy-3H-pyrazolo[3,4-c]quinolin-4-yl)amino)-2,3-dihydrobenzo[b]thiophene 1,1-dioxide], for which the half-maximal inhibitory concentration (IC50) lay within 0.01 to 0.1 µM.

As to `COc1cccc2nc(Nc3ccc4c(c3)S(=O)(=O)C=C4)c3[nH]ncc3c12` [Example 20, 6-((9-methoxy-3H-pyrazolo[3,4-c]quinolin-4-yl)amino)benzo[b]thiophene 1,1-dioxide], the half-maximal inhibitory concentration (IC50) was in the range of 0.01 to 0.1 µM.

Take `COc1ccc2nc(Nc3cccc(CN4CCOCC4)c3)c3n[nH]cc3c2c1` [Example 23, 8-methoxy-N-(3-(morpholinomethyl)phenyl)-2H-pyrazolo[3,4-c]quinolin-4-amine]: the concentration for half-maximal inhibition (IC50) lay within 0.1 to 1 µM.

`COc1ccc2nc(Nc3cccc(C(C)(C)C#N)c3)c3n[nH]cc3c2c1` [Example 24, 2-(3-((8-methoxy-2H-pyrazolo[3,4-c]quinolin-4-yl)amino)phenyl)-2-methylpropanenitrile]: the IC50 fell in the range of 0.1 to 1 µM.

As for `COc1ccc2nc(Nc3ccc(N4CCOC4=O)cc3)c3n[nH]cc3c2c1` [Example 25, 3-(4-((8-methoxy-2H-pyrazolo[3,4-c]quinolin-4-yl)amino)phenyl)oxazolidin-2-one], the IC50 lay within 0.1 to 1 µM.

In the case of `COc1cccc2nc(Nc3cc(C4CC4)[nH]n3)c3n[nH]cc3c12` [Example 26, N-(5-cyclopropyl-1H-pyrazol-3-yl)-9-methoxy-3H-pyrazolo[3,4-c]quinolin-4-amine], the IC50 fell in the range of 0.01 to 0.1 µM.

Regarding `COc1cccc2nc(Nc3ccc(N4CCOCC4)c(F)c3)c3[nH]ncc3c12` [Example 27, N-(3-fluoro-4-morpholinophenyl)-9-methoxy-3H-pyrazolo[3,4-c]quinolin-4-amine], the 50% inhibitory concentration (IC50) was 0.01 to 0.1 µM.

`COc1cccc2nc(Nc3cccc(CN(C)C)c3)c3[nH]ncc3c12` [Example 28, N-(3-((dimethylamino)methyl)phenyl)-9-methoxy-3H-pyrazolo[3,4-c]quinolin-4-amine]: the IC50 was in the range of 0.1 to 1 µM.

On to `O=C(c1ccc(Nc2nc3cccc(F)c3c3cn[nH]c23)cc1)N1CCOCC1` [Example 29, (4-((9-fluoro-3H-pyrazolo[3,4-c]quinolin-4-yl)amino)phenyl)(morpholino)methanone], for which the IC50 lay in the range of 0.1 to 1 µM.

In the case of `Fc1cccc2nc(Nc3ccc(CN4CCOCC4)cc3)c3[nH]ncc3c12` [Example 30, 9-fluoro-N-(4-(morpholinomethyl)phenyl)-3H-pyrazolo[3,4-c]quinolin-4-amine], the half-maximal inhibitory concentration (IC50) fell in the range of 0.1 to 1 µM.

Turning to `COc1cc(Nc2nc3cccc(F)c3c3cn[nH]c23)ccc1N1CCOCC1` [Example 31, 9-fluoro-N-(3-methoxy-4-morpholinophenyl)-3H-pyrazolo[3,4-c]quinolin-4-amine], the IC50 was 0.1 to 1 µM.

In the case of `COc1cccc2nc(Nc3ccc(F)c(S(C)(=O)=O)c3)c3[nH]ncc3c12` [Example 32, N-(4-fluoro-3-(methylsulfonyl)phenyl)-9-methoxy-3H-pyrazolo[3,4-c]quinolin-4-amine], the IC50 lay within 0.01 to 0.1 µM.

As for `COc1cccc2nc(Nc3cccc(C(C)(C)C#N)c3)c3[nH]ncc3c12` [Example 33, 2-(3-((9-methoxy-3H-pyrazolo[3,4-c]quinolin-4-yl)amino)phenyl)-2-methylpropanenitrile], the 50% inhibitory concentration (IC50) was 0.1 to 1 µM.

With `COc1ccc2nc(Nc3ccc(C(=O)N4CCOCC4)c(F)c3)c3n[nH]cc3c2c1` [Example 34, (2-fluoro-4-((8-methoxy-2H-pyrazolo[3,4-c]quinolin-4-yl)amino)phenyl)(morpholino)methanone], the half-inhibitory concentration (IC50) was in the range of 0.01 to 0.1 µM.

Take `COc1ccc2nc(Nc3ccc(C(=O)N4CCOCC4)c([N+](=O)[O-])c3)c3n[nH]cc3c2c1` [Example 35, (4-((8-methoxy-2H-pyrazolo[3,4-c]quinolin-4-yl)amino)-2-nitrophenyl)(morpholino)methanone]: the IC50 lay in the range of 0.1 to 1 µM.

In the case of `COc1ccc2nc(Nc3ccc(-c4ncco4)cc3)c3n[nH]cc3c2c1` [Example 36, 8-methoxy-N-(4-(oxazol-2-yl)phenyl)-2H-pyrazolo[3,4-c]quinolin-4-amine], the concentration for half-maximal inhibition (IC50) was in the range of 0.1 to 1 µM.

Consider `COc1ccc2nc(Nc3ccc(-c4cnco4)cc3)c3n[nH]cc3c2c1` [Example 37, 8-methoxy-N-(4-(oxazol-5-yl)phenyl)-2H-pyrazolo[3,4-c]quinolin-4-amine], for which the IC50 was less than 0.01 µM.

With `COc1cccc2nc(Nc3ccc(N4CCN(C(C)(C)C)CC4)cc3)c3[nH]ncc3c12` [Example 38, N-(4-(4-(tert-butyl)piperazin-1-yl)phenyl)-9-methoxy-3H-pyrazolo[3,4-c]quinolin-4-amine], the IC50 was in the range of 0.01 to 0.1 µM.

In the case of `COc1cccc2nc(Nc3ccc(C(=O)N4CCC(N5CCN(C)CC5)CC4)cc3)c3[nH]ncc3c12` [Example 39, (4-((9-methoxy-3H-pyrazolo[3,4-c]quinolin-4-yl)amino)phenyl)(4-(4-methylpiperazin-1-yl)piperidin-1-yl)methanone], the IC50 fell in the range of 0.01 to 0.1 µM.

As to `COc1cccc2nc(Nc3ccc(N4CCOC4=O)cc3)c3n[nH]cc3c12` [Example 40, 3-(4-((9-methoxy-2H-pyrazolo[3,4-c]quinolin-4-yl)amino)phenyl)oxazolidin-2-one], the half-maximal inhibitory concentration (IC50) was less than 0.01 µM.

`CSc1ccc2nc(Nc3ccc(N4CCOCC4)cc3)c3[nH]ncc3c2c1` [Example 43, 8-(methylthio)-N-(4-morpholinophenyl)-3H-pyrazolo[3,4-c]quinolin-4-amine]: the IC50 was in the range of 0.01 to 0.1 µM.

For the molecule `CSc1ccc2nc(Nc3cccc(S(C)(=O)=O)c3)c3[nH]ncc3c2c1` [Example 44, N-(3-(methylsulfonyl)phenyl)-8-(methylthio)-3H-pyrazolo[3,4-c]quinolin-4-amine], the IC50 lay within 0.01 to 0.1 µM.
